The values that follow come from patent publication US20100056524A1, “Compound” (priority 2008, published 2010).

The target in one experiment is T1, p38a MAPK (Homo sapiens, UniProt Q16539).
T1 construct: All protein kinases were of human origin and encoded full length proteins, unless indicated otherwise; made in house
Description: p38a MAPK protein kinase assay. The experiment is classed as biochemical. Conditions: for remaining activity at 10 µM: 10 μM compound; for residual kinase activity p38a MAPK: 1 μm compound; for remaining activity at 1 µM: 1 μM compound. From the text: (§1) All protein kinases were of human origin and encoded full length proteins, unless indicated otherwise. They were either expressed as glutathione S-transferase (GST) fusion proteins in Escherichia Coli or as hexahistidine (His6)-tagged proteins in insect Sf21 cells. GST fusion proteins were purified by affinity chromatography on glutathione-Sepharose, and His6-tagged proteins on nickel/nitriloacetate-agarose. The procedures for expressing some of the protein kinases used herein have been detailed previously.^8,9 The following sections outline the DNA vectors synthesised and the procedures used to express and purifying protein kinases that have not been reported previously.
(§2) All assays (25.5 μl) were carried out at room temperature (21° C.) and were linear with respect to time and enzyme concentration under the conditions used. Assays were performed for 30 min using Multidrop Micro reagent dispensers (Thermo Electron Corporation, Waltham, Mass. 02454, USA) in a 96-well format. The concentration of magnesium acetate in the assays was 10 mM and the [γ-33P] ATP (800 cpm/pmol) was used at 5, 20 or 50 μM as indicated, in order to be at or below the Km for ATP for each enzyme. Protein kinases assayed at 5 μM ATP were: —ERK1, ERK8, PKBα, MARK3, Aurora C. Protein kinases assayed at 20 μM ATP were: —JNK1, PDK1, CHK1, CHK2, CDK2 and Aurora B. Protein kinases assayed at 50 μM ATP were: —MNK2, IKKepsilon and TBK1.
(§3) The assays were initiated with MgATP, stopped by addition of 5 μl of 0.5 M orthophosphoric acid and spotted on to P81 filterplates using a unifilter harvester (PerkinElmer, Boston, Mass. 02118, USA). The IC50 values of inhibitors were determined after carrying out assays at 10 different concentrations of each compound.
(§4) Unless stated otherwise, enzymes were diluted in 50 mM Tris/HCl pH 7.5, 0.1 mM EGTA, 1 mg/ml BSA, 0.1% (v/v) 2-mercaptoethanol and assayed in 50 mM Tris/HCl pH 7.5, 0.1 mM EGTA, 0.1% (v/v) 2-mercaptoethanol.

The next experiment has as its system PHK. Description: PHK protein kinase assay. The experiment is classed as biochemical, human. Conditions: for residual kinase activity: PHK.
From the text: as §1, §2, §3, §4

The next experiment addresses T2, SGK1 (Homo sapiens, UniProt O00141, S422D).
T2 construct: All protein kinases were of human origin and encoded full length proteins, unless indicated otherwise; made in house
T2 sequence (O00141 60-431 S422D limits assumed): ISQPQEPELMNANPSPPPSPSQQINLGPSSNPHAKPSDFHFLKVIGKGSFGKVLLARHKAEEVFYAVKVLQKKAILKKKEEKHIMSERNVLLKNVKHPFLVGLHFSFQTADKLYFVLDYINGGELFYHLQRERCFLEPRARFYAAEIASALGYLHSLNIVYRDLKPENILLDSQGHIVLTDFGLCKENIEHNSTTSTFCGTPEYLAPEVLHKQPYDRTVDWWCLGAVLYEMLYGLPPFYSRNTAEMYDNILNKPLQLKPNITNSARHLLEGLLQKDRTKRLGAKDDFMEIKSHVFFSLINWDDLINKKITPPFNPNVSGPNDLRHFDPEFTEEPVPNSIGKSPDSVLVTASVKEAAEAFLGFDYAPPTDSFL
Description: SGK1 protein kinase assay. The format is biochemical. Conditions: for remaining activity at 10 µM: 10 μM compound; for residual kinase activity SGK1: 1 μm compound; for remaining activity at 1 µM: 1 μM compound.
From the text: as §1, §2, §3, §4

The target in another experiment is T3, VEG-FR (Homo sapiens, UniProt P17948).
T3 construct: All protein kinases were of human origin and encoded full length proteins, unless indicated otherwise; made in house
T3 sequence (P17948 784-1338 limits assumed): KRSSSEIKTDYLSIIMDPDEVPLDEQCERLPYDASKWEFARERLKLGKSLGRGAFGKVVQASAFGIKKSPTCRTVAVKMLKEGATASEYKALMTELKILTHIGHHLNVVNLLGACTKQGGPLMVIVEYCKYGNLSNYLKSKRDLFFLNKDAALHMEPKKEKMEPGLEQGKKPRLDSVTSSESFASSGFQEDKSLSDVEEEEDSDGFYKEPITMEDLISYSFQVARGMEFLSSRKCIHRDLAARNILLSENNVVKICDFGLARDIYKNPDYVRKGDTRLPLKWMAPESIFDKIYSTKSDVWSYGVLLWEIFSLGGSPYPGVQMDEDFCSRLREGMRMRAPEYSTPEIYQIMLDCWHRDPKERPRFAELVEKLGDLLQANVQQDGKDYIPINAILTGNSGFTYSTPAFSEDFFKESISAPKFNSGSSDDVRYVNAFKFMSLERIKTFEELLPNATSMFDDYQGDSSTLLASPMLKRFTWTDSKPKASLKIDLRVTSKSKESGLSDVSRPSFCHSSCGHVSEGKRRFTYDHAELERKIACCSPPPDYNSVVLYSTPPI
Description: VEG-FR protein kinase assay. Conditions: for remaining activity at 10 µM: 10 μM compound; for residual kinase activity VEG-FR: 1 μm compound; for remaining activity at 1 µM: 1 μM compound. The format is biochemical.
From the text: as §1, §2, §3, §4

The target in another experiment is T4, FGF-R1 (Homo sapiens, UniProt P11362).
T4 construct: All protein kinases were of human origin and encoded full length proteins, unless indicated otherwise; made in house
T4 sequence (P11362 400-820 limits assumed): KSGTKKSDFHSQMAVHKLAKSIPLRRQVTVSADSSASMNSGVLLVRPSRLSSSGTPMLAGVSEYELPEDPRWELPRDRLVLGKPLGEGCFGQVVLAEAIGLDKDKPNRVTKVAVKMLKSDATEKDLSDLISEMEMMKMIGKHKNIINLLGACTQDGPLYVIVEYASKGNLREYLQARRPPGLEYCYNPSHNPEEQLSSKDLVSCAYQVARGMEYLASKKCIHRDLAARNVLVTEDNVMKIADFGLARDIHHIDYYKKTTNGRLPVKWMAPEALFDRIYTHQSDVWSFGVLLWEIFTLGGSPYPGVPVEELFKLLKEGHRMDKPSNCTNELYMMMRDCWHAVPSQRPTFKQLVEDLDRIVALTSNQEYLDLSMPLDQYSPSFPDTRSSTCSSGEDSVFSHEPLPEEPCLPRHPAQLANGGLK
Description: FGF-R1 protein kinase assay. The experiment is classed as biochemical. Conditions: for remaining activity at 10 µM: 10 μM compound; for residual kinase activity FGF-R1: 1 μm compound; for remaining activity at 1 µM: 1 μM compound.
From the text: as §1, §2, §3, §4

[1] abbreviates: read-out: residual kinase activity p38a MAPK.
The mark [2] stands for this setting: read-out: residual kinase activity SGK1.
Setting [3] is: read-out: residual kinase activity VEG-FR.
Where [4] appears, read: read-out: residual kinase activity FGF-R1.
Setting [5] is: p38a MAPK, read-out: residual kinase activity.
The mark [6] stands for this setting: SGK1, read-out: residual kinase activity.
Where [7] appears, read: VEG-FR, read-out: residual kinase activity.
[8] abbreviates: FGF-R1, read-out: residual kinase activity.

Structures are written as SMILES. Structures can show the parent of a compound that is named as a salt. Where two headings read alike, the source gives them in different places.

T1 sequence (Q16539 whole entry): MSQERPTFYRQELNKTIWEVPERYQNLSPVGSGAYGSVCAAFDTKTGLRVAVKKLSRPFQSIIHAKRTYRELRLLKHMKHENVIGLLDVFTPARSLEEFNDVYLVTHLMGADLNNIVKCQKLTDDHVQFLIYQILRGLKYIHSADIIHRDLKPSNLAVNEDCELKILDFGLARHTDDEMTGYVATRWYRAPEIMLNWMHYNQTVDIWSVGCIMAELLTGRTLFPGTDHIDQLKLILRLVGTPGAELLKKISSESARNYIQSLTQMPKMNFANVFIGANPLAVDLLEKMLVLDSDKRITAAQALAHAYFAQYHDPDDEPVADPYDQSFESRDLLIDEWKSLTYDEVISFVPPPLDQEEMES

As for `O=C(NCCCNc1nc(Nc2cccc(F)c2)ncc1Br)C1CCC1` [Compound A, cyclobutanecarboxylic acid {3-[5-bromo-2-(3-fluoro-phenylamino)-pyrimidin-4-ylamino]-propyl}-amide, reference compound], the remaining activity at 10 µM at p38a MAPK (setting [1]) stood at 78%; on SGK1 (setting [2]) it was 18%; at VEG-FR (setting [3]), 4%; at FGF-R1 (setting [4]), 1%. The “residual kinase activity p38a MAPK” value on p38a MAPK is given as 99%. Moreover, the entries for the “residual kinase activity PHK” value in the experiment with PHK (10 μM compound) and in the experiment on PHK (1 μm compound) were 0% and 7%, respectively. The “residual kinase activity SGK1” value at SGK1 amounted to 59%. Further, the “residual kinase activity VEG-FR” value on VEG-FR came out at 4%. Further, the “residual kinase activity FGF-R1” value at FGF-R1 is listed as 17%.

Turning to `O=C(NCCCNc1nc(Nc2cccc(N3CCCC3=O)c2)ncc1C1CC1)c1cccs1` [Example 47, Thiophene-2-carboxylic acid (3-{5-cyclopropyl-2-[3-(2-oxo-pyrrolidin-1-yl)-phenylamino]-pyrimidin-4-ylamino}-propyl)-amide. Hydrochloride salt], the remaining activity at 1 µM on p38a MAPK (setting [5]) came to 105%; on SGK1 (setting [6]), 71%; at VEG-FR (setting [7]) it was 12%; at FGF-R1 (setting [8]) it was 78%. Moreover, the remaining activity at 10 µM at p38a MAPK (setting [5]) was determined as 100%; at SGK1 (setting [6]), 59%; on VEG-FR (setting [7]) it was 34%; at FGF-R1 (setting [8]), 31%. The residual kinase activity in the experiment on PHK (1 μM compound) stood at 78%; in the experiment on PHK (10 μM compound), 24%.

As to `O=C(NCCCNc1nc(Nc2cccnc2)ncc1C1CC1)c1cccs1` [Example 50, Thiophene-2-carboxylic acid {3-[5-cyclopropyl-2-(pyridin-3-ylamino)-pyrimidin-4-ylamino]-propyl}-amide], the remaining activity at 1 µM at p38a MAPK (setting [5]) came out at 106%; at SGK1 (setting [6]) it was 86%; on VEG-FR (setting [7]), 78%; at FGF-R1 (setting [8]), 77%. Moreover, the remaining activity at 10 µM at p38a MAPK (setting [5]) was 90%; on SGK1 (setting [6]), 57%; at VEG-FR (setting [7]) it was 20%; on FGF-R1 (setting [8]), 31%. Moreover, the figures for the residual kinase activity in the experiment with PHK (1 μM compound) and with PHK (10 μM compound) were 64% and 15%, respectively.

With `O=C(NCCCNc1nc(Nc2cccc(F)c2)ncc1C1CC1)C1CCC1` [Example 23, Cyclobutanecarboxylic acid {3-[5-cyclopropyl-2-(3-fluoro-phenylamino)-pyrimidin-4-ylamino]-propyl}-amide], the remaining activity at 10 µM at p38a MAPK (setting [1]) turned out to be 86%; at p38a MAPK (setting [5]), 86%; at SGK1 (setting [2]), 64%; at SGK1 (setting [6]), 64%; at VEG-FR (setting [3]), 27%; on VEG-FR (setting [7]), 27%. The remaining activity at 10 µM at FGF-R1 (setting [4]) and at FGF-R1 (setting [8]) was 36% in each case. Moreover, at p38a MAPK, the “residual kinase activity p38a MAPK” value is listed as 72%. Also, the remaining activity at 1 µM at p38a MAPK (setting [5]) worked out at 72%; on SGK1 (setting [6]), 100%; at VEG-FR (setting [7]), 81%; at FGF-R1 (setting [8]), 89%. Also, the figures for the “residual kinase activity PHK” value with PHK (10 μM compound) and in the experiment with PHK (1 μm compound) were 3% and 28%, respectively. Moreover, the figures for the residual kinase activity in the experiment with PHK (1 μM compound) and in the experiment on PHK (10 μM compound) were 28% and 3%, respectively. Further, the “residual kinase activity SGK1” value at SGK1 was determined as 100%. The “residual kinase activity VEG-FR” value on VEG-FR stood at 81%. Besides, the “residual kinase activity FGF-R1” value at FGF-R1 is listed as 89%.
